Laboratory results published in paper PMC4993479 (PLoS ONE, 2016).
Where two headings read alike, the source gives them in different places.

What was measured:
[1] = Uptake/retention in the epidermis by solvent extraction and HPLC after the permeation experiment; conditions: human epidermis
Method: Briefly, the skin sections were placed in 500 μL methanol and vortexed for 2 min, then transferred to a second 500 μL methanol volume and vortexed for another 2 min. The skin sample was then placed in 1 mL propylene glycol for 1 h with agitation. After centrifuging each extract at 10,000 × g for 10 min, the resultant supernatants were diluted appropriately, quantified by HPLC, and the data combined to give total penetrant in the epidermal section.
Mass balance/recovery after the skin permeation experiments was determined by removing and retaining the donor solution, and washing the epidermal surface, donor and receptor compartments and retaining all washing solutions. The content of all solutions was analysed by HPLC following suitable dilution.

[2] = In vitro skin diffusion across human epidermis in Franz-type diffusion cells; type: in vitro ADME
Method: Full thickness human skin samples from patients (26–48 years old females) undergoing abdominoplasty at Perth (WA, Australia) hospitals were refrigerated immediately after surgery. Sampling was approved by the Human Research Ethics Committee of Curtin University and was conducted in compliance with the guidelines of the National Health and Medical Research Council of Australia. Epidermal sheets were obtained and stored as previously described. […] Two hundred μL samples of the receptor phase were withdrawn and replaced with an equal volume of fresh pre-warmed (37°C) 25:75 PG:PBS over an 8 h period and the content analysed by HPLC. […] Permeability coefficients (cm/h) were calculated.

COX-2 = biological target: T1, COX-2 (Homo sapiens, UniProt P35354); assay: COX Fluorescent Inhibitor Screening Assay (COX-2 inhibition); type: biochemical; conditions: concentration range 0.000155–0.31 mM, 2 min incubation
T1 construct: purchased Cayman Chemical 700100
T1 sequence (P35354 18-604): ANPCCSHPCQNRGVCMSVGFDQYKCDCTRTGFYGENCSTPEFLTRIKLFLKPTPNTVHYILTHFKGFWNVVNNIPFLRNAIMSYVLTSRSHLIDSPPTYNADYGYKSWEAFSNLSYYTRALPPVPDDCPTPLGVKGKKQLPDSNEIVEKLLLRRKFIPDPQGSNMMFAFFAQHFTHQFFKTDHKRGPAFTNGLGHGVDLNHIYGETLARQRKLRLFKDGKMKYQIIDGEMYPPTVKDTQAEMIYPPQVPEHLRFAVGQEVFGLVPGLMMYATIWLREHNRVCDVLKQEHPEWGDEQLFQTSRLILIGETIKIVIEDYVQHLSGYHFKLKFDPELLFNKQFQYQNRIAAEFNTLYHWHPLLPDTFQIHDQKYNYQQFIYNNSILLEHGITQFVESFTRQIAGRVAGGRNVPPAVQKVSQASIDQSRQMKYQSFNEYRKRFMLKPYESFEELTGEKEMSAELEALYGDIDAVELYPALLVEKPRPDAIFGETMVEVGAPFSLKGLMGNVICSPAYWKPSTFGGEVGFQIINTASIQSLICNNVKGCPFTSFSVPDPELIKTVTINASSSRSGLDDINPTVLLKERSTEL

For `O=C(O)Cc1ccccc1Nc1c(Cl)cccc1Cl` [Diclofenac, Diclofenac sodium], the “Amount extracted from the skin (% of applied dose)” value ([1]; applied dose 150 μg) was 5.72 % of applied dose, the “Amount extracted (skin distribution)” value ([1]; applied dose 150 μg in 25:75 PG:PBS, after 8 h permeation experiment) was 8.58(±1.50) μg and the steady state flux ([2]; human epidermis, 300 μL containing 150 μg diclofenac alone or as conjugate in 25:75 PG:PBS, 8 h) was 0.12 μg/cm^2/h. The Maximum amount permeated ([2]; human epidermis, applied dose 150 μg in 300 μL 25:75 PG:PBS, 8 h) was 0.91(±0.15) μg/cm^2 and the “Amount permeated (% of applied dose)” value ([2]; human epidermis, applied dose 150 μg, 8 h) was 0.60 % of applied dose.
With DKP Phe-N-MeNal the “COX-2 inhibition (in words)” value (COX-2) was “did not demonstrate COX-2 inhibition”, the “Amount permeated (% of applied dose)” value [2] was 4.33 % of applied dose and the Maximum amount permeated [2] was 6.50(±1.94) μg/cm^2.
In the case of `CN1C(=O)[C@H](Cc2ccc(NC(=O)Cc3ccccc3Nc3c(Cl)cccc3Cl)cc2)NC(=O)[C@@H]1Cc1ccc2ccccc2c1` [DKP-diclofenac conjugate, DKP Phe(Diclofenac)-N-MeNal], the “Amount permeated (% of applied dose)” value [2] is reported as 4.00 % of applied dose and the Maximum amount permeated [2] is reported as 6.01(±0.16) μg/cm^2.
